The source of these data is patent US20110003778A1, “MINERALCORTICOID RECEPTOR ANTAGONISTS FOR THE TREATMENT OF ENDOMETRIOSIS” (Bayer Schering Pharma Aktiengesellschaft, priority 2007, published 2011).

The subject of test [1] is endometriotic lesions. Description: Endometriosis model in rhesus macaques: uterus weight and weights/size of endometrial lesions after 60 days of treatment. The format is in vivo. The procedure: (§1) The activity of the mineralcorticoid receptor antagonist spironolactone was tested in an endometriosis model in non-human primates. Non-human primates are the only species apart from man where endometriosis occurs spontaneously under natural conditions. They are therefore the most relevant model for examining this disorder. […] In this procedure, the animals are given a depot for estradiol substitution which keeps the serum level at 80 to 100 pg/ml. In this manner, it is ensured that the endometriotic lesions are exposed to physiological concentrations of estradiol. By virtue of the depot, interindividual variations of the hormone concentrations and their effect on the results can be excluded. After the treatment, the size of the endometrium lesions was determined, and the proliferation of these lesions was detected by a histological analysis. […] In an autologous transplantation, a plurality of lesions from endometrium tissue were implanted subcutaneously and intraperitoneally/abdominally into rhesus macaques.

Test [2] relates to endometriotic lesions. Description: Rate of proliferation of endometrial lesions in the rhesus macaque endometriosis model (Ki67 staining, BrDU incorporation). The conditions noted are these: abdominal lesions, secretory cells; 60 days spironolactone vs control; FIG. 3. The format is in vivo, rhesus macaques. The procedure:
as §1, with “Accordingly, the mineralcorticoid receptor antagonist spironolactone has” for “In an autologous transplantation,”, “positive effect on endometriosis genesis.” for “plurality of lesions from endometrium tissue were implanted subcutaneously and intraperitoneally/abdominally into rhesus macaques.”
Examination of the rate of proliferation of endometrial lesions in an endometriosis model in rhesus macaques after treatment with spironolactone.
Both detection of cell division in the endometriotic lesions by Ki67 (top row) and by incorporation of BrDU (bottom row) show a reduced value in the animals treated with spironolactone (control, left, compared to spironolactone, right).

The mark [3] stands for this setting: after 60 days of treatment, macaque model, n = 4.

“Also recorded” adds a separate entry of the source.

For `CC(=O)S[C@@H]1CC2=CC(=O)CC[C@]2(C)[C@H]2CC[C@@]3(C)[C@@H](CC[C@@]34CCC(=O)O4)[C@H]12` [spironolactone], in test [1] (60 days estradiol + spironolactone 30 mg/kg/day vs estradiol control), the “size of the endometriotic lesions compared to control animals” value was “significant reduction of the endometriotic lesions”. In test [1] (60 days estradiol + spironolactone vs estradiol control), the “effect on the uterus as such” value is “no significant effect”. In test [1] (60 days estradiol + spironolactone vs estradiol control, both types of lesions), the “weight of subcutaneous and intraperitoneal/abdominal lesions after treatment (in words)” value is “reduction in weight”. In test [2], the “proliferation in the lesions by bromodeoxyuridine (BrDU) incorporation” value was “reduction of proliferation; also recorded: strongly reduced; also recorded: reduced value” and the “proliferation in the lesions by staining of the mitotic antigen Ki67” value is listed as “reduction of proliferation; also recorded: strongly reduced; also recorded: reduced value”.
Turning to `C[C@]12CC[C@@H]3c4ccc(O)cc4CC[C@H]3[C@@H]1CC[C@@H]2O` [E2, estradiol], in test [1] (setting [3]), the Intraabdominal lesion wt is 0.068 + 0.11 g, the Subcutaneous lesion wt was determined as 0.039 ± 0.008 g and the Uterus wt was 3.75 ± 0.496 g.
